Experiments:
[1] = system: Peripheral blood lymphocytes; assay: Direct comparative cytotoxicity assay (Table II), peripheral blood lymphocytes; format: cell-based, human; settings: Homo sapiens, Lymphocyte, 120 h, read-out: ID50: concentration that produced 50 percent reduction in all numbers after five days
Source text: (§1) The two compounds, CdA and CAFdA, were also compared for in vitro activity against another group of human cell lines in a direct comparative assay.
(§2) ^1 Concentration that produced 50 percent reduction in all numbers

[2] = system: antigen-induced arthritis; assay: Antigen-induced arthritis in rabbits; format: in vivo; settings: CdA 1 mg/kg, tepoxalin 25 mg/kg, naproxen 5 mg/kg
Procedure: Antigen-induced arthritis in rabbits is an animal model of rheumatoid arthritis. In this model, the rabbits are sensitized to an antigen such as ovalbumin or methylated bovine serum albumin in an adjuvant. Several weeks later, the same antigen is injected directly into the joints of the animal. […] Pettipher et al., Br. J. Exp. Path., 69:113-122 (1988).
Rabbits with antigen-induced arthritis were treated with CdA (1 mg/kg), tepoxalin (25 mg/kg) or naproxen (5 mg/kg).

[3] = system: 2 week old cultured monocytes (differentiated macrophages); assay: In vitro cytotoxicity toward 2 week old cultured monocytes; format: cell-based, human
neopterin = assay: Plasma neopterin levels in a rheumatoid arthritis patient treated with CdA; format: in vivo, human
Procedure: Plasma neopterin levels were measured in a patient with rheumatoid arthritis. Neopterin is released from monocytes and macrophages activated in an immune response. Huber et al., J. Exp. Med., 160:310-316 (1984). Likewise, high levels of neopterin are associated with clinical activity in patients with rheumatoid arthritis. Clinical activity was rated by the following criteria: duration of morning stiffness, range of motion, subjective pain score, measurement of grip strength, synovial thickening, and number of inflamed joints. Reibnegger et al., Arthritis Rheum., 29:1063-1070 (1986). The levels of neopterin in patients with rheumatoid arthritis are proportional to both clinical activity and the levels of activated monocytes and macrophages in these patients.
In this study, a patient with rheumatoid arthritis received CdA by a weekly, four hour intravenous infusion at a dosage of 0.125 to 0.15 mg/kg body weight for an approximately three month course of therapy. Plasma neopterin levels were measured throughout this treatment regime.

DHL9, wild type = assay: Direct comparative cytotoxicity assay (Table II), DHL9 wild type; format: cell-based, human; settings: Homo sapiens, 120 h, read-out: ID50: concentration that produced 50 percent reduction in all numbers after five days
Source text: as §1, §2
^2 CEM cells are T lymphoblasts; DHL9 cells are lymphoblasts.

monocytes = assay: Monocyte phagocytosis of antibody-coated erythrocytes; format: cell-based, human; settings: three days
Procedure: FIG. 6 is a graph that illustrates the effects of relatively low doses of CdA used to contact monocytes for a 72 hour time period. Monocyte release of interleukin-6 (IL-6; closed diamonds) and phagocytosis of antibody-coated red blood cells (RBC; closed squares) were examined, as was the viability of the cultured monocytes (open squares). Effects are expressed as a percentage of control values versus the CdA concentration in nanomoles (nM).
The effects of sub-lethal CdA concentrations on monocyte function in vitro was also studied. Cells were contacted and cultured with CdA (5-20 nM) for three days, after which phagocytosis and supernatant IL-6 activity were assayed.
Monocyte phagocytosis was assayed using autologous erythrocyte targets, sensitized with a subagglutinating titer of rabbit anti-human erythrocyte IgG (Cappel, Malvern, Pa.). Monocytes (2×10^5 cells/well) were exposed to sub-toxic concentrations of CdA in microwell plates for 72 hours. Complete medium was replaced with medium containing 10% fetal bovine serum, and a suspension of sensitized erythrocytes (0.25% packed cell volume) was added to the adherent monocyte layers. After incubation for 4 hours at 37 degrees C., the degree of phagocytosis was quantitated by the spectrophotometric method of Jungi (1985) J. Immunol. Meth., 82:141-153. […]

[4] = system: delayed-type hypersensitivity (DTH) response; assay: Delayed-type hypersensitivity to ovalbumin in guinea pigs, oral and intraperitoneal treatment; format: in vivo, guinea pig; settings: dexamethasone 5 mg/kg, CdA or CAFdA 1 mg/kg, 24 and 48 hours, p<0.01
Procedure: Delayed-type hypersensitivity (DTH) is a cell-mediated immune response that typically takes longer than 12 hours to develop. In the guinea pig, a DTH reaction to an antigen can be established by first immunizing the animal with the antigen in an adjuvant such as Freund's complete adjuvant. Subsequent intradermal injection of the antigen causes no change for at least 10 hours, after which there is a gradual increase in erythema and swelling in response to antigen injection. This response peaks about at about 24 hours after challenge, then gradually subsides.
Histologically, the inflammatory response is characterized by intense inundation of the site with mononuclear cells, of which about half are lymphocytes and the other half monocytes. DTH is therefore an indicator of a monocyte-mediated immune reaction.
In one study, guinea pigs were sensitized to ovalbumin in adjuvant. The animals were then treated either orally or intraperitoneally with saline (control), dexamethasone (5 mg/kg), CdA (1 mg/kg) or CAFdA (1 mg/kg). The animals were then injected with ovalbumin intradermally to elicit the DTH response. The mean area of the swelling size was measured for each animal (nine or ten animals were treated for each protocol).

SMILES: Nc1nc(Cl)nc2c1ncn2[C@H]1C[C@H](O)[C@@H](CO)O1 [CdA, 2-chloro-9,1'-beta-D-2'-deoxyribosyladenine]
- IC50 [1]: 15 nM
- pathological examination of joints compared to untreated controls [2]: milder inflammatory response coupled with much less tissue damage
- IC50 ([3]; Homo sapiens, Monocyte, 336 h, read-out: CdA concentration at which 50 percent of 2 week old cultured monocytes were killed): > 250 nM
- increase in resistance of 2 week old cultured versus freshly isolated monocytes ([3]; human, monocytes): over 12.5 times
- plasma neopterin (neopterin; by about day 84 of therapy): about 18 nM
- plasma neopterin (neopterin; days 14 through 70 after the first administration): about 30 nM
- plasma neopterin (neopterin; initial value, weekly four hour i.v. infusion 0.125 to 0.15 mg/kg): about 60 nM
- plasma neopterin (neopterin; within the first seven days of therapy): about 25 nM
- IC50 (DHL9, wild type): 80 nM
- cell viability (monocytes; 5-20 nM CdA): unchanged cell viability
- phagocytosis of antibody-coated erythrocyte targets (monocytes; 10 and 20 nM CdA): markedly suppressed
- swelling after ovalbumin challenge compared to saline control ([4]; intraperitoneal): significant inhibition of swelling
- swelling after ovalbumin challenge compared to saline control ([4]; oral): ineffective
